Test results reported in patent US7501513B2, “Immunosuppressive effects of pteridine derivatives” (4 AZA Bioscience NV, priority 2003, dated 2009).

Key:
IL-5 = assay: Inhibition of the release of IL-5; type: cell-based; conditions: at 0.1 μM/l
Experimental: (§1) 2-amino-4-morpholino-6-(3,4-dimethoxyphenyl)pteridine (a compound known from WO 00/39129) was tested, according to experimental procedures well established in the art, in the inhibition of two cytokines, IL-5 and IL-10, known to be involved in the development of asthma and other forms of severe allergic conditions.

IL-10 = assay: Inhibition of the release of IL-10; type: cell-based; conditions: at 0.1 μM/l
Experimental: as §1

B16BL/6 melanoma cells = assay: Inhibition of the metastasis of melanoma cells in mice; type: in vivo, C57BL/6 mice; conditions: 20 mg/kg intraperitoneously, three times a week for two weeks; control group 80%
Experimental: C57BL/6 mice were injected with 1.5×10^6 B16BL/6 melanoma cells and were divided into 2 groups. Five days after the injection of the tumor cells, the two groups of animals were administered intraperitoneously, three times a week for two subsequent weeks, either (treated group) 20 mg/kg of 2-amino-4-morpholino-6-(3,4-dimethoxyphenyl)pteridine (a compound known from WO 00/39129) or (control group) the vehicle (5% DMSO in phosphate buffered saline). At the end of the experiment, all surviving tumor-bearing mice were sacrificed and examined in order to assess the absence or presence of the black metastases in inguinal and/or para-aortic lymph nodes (macroscopic metastasis). The findings were confirmed by histology, and the experiment done twice.

[1] = system: Peripheral blood mononuclear cells; assay: Mixed lymphocyte reaction (MLR) test; type: cell-based, human; conditions: Homo sapiens, PBMC; Table 1; 50% suppression of the MLR
Experimental: (§2) Pteridine derivatives were first dissolved (10 mM) in dimethylsulfoxide (hereinafter referred as DMSO) and further diluted in culture medium before use for the following in vitro experiments. The commercially available culture medium consisted of RPMI-1640+10% foetal calf serum (FCS). Some pteridine derivatives described the previous examples were tested in the following lymphocyte activation tests:
(§3) Peripheral blood mononuclear cells (hereinafter referred as PBMC) were isolated from heparinized peripheral blood by density gradient centrifugation over Lymphoprep (Nycomed, Maorstua, Norway). Allogeneic PBMC or Eppstein-Barr Virus-transformed human B cells [commercially available under the trade name RPMI1788 (ATCC name CCL156)] which strongly express B7-1 and B7-2 antigens were used as stimulator cells after irradiation with 30 Gy. MLR was performed in triplicate wells. After 5 days incubation at 37° C., 1 μCi [^3H]-thymidine was added to each cup. After a further 16 hours incubation, cells were harvested and counted in a β-counter. Inhibition of proliferation by a compound (drug) described in some of the previous examples was counted using the formula:
(§4) [formula] wherein cpm is the thymidine count per minute. The MLR assay is regarded by those skilled in the art as an in vitro analogue of the transplant rejection since it is based on the recognition of allogeneic major histocompatibility antigens on the stimulator leukocytes, by responding lymphocytes. Assays for CD3 and CD 28
Pteridine derivatives were first dissolved (10 mM) in dimethylsulfoxide (hereinafter referred as DMSO) and further diluted in culture medium before use for the following in vitro experiments. The commercially available culture medium consisted of RPMI-1640+10% foetal calf serum (FCS). Some pteridine derivatives described in the previous examples (as indicated in table 3 below) were tested in the following mixed lymphocyte reaction (MLR) assay.
as §3, with “CCL156)]which” for “CCL156)] which”
as §4, with “lymphocytes.” for “lymphocytes. Assays for CD3 and CD 28”

[2] = system: Highly purified T cells stimulated by anti-CD3 mAb; assay: CD3 assay: T-cell proliferation stimulated by immobilized anti-CD3 mAb + PMA (BrdU); type: cell-based, human; conditions: Homo sapiens; 50% reduction in T-cell proliferation; read-out: CD 3 IC50
Experimental: as §2
(§5) T cells were purified by removing non-T cells. Briefly, monocytes were removed by cold agglutination. The resulting lymphoid cells were further purified by a cell enrichment immunocolumn [Cellect Human T commercially available from Biotex, Edmonton, Alberta, Canada)] by a process of negative selection. More than 95% of the B cells were removed with this procedure. After depletion, the resulting T cell preparation was highly purified, i.e. these cells could not be activated by phytohaemagglutinin (PHA) or rIL-2 alone at concentrations capable of stimulating RBMC prior to deletion.
(§6) Highly purified T cells (10^6/ml) were stimulated by immobilized anti-CD3 or anti-CD28 monoclonal antibodies (hereinafter referred as mAb) in the presence of phorbol myristate acetate (hereinafter referred as PMA). Anti-CD3 mAb (available from CLB, Amsterdam, Netherlands) were fixed on a 96-microwell plates by incubating the wells with 50 μl of mAb solution (1/800 dilution in culture medium). For anti-CD28 mAb (available from CLB, Amsterdam, Netherlands) 50 μl (1/650 dilution in culture medium) was added directly to the wells. Further, a 20 μl PMA (commercially available from Sigma, St. Louis, Mo., USA) solution (final concentration: 0.5 ng/ml) was added. Subsequently, 20 μl of a pteridine derivative described in the previous examples were added by serial dilution in triplicate wells. Finally 100 μl of the T-cell suspension (10^6/ml) was added. After 48-hour incubation at 37° C. in 5% CO2, 20 μl of a bromo-deuridine (hereinafter referred as BrdU) 100 μM solution (commercially available as Cell Proliferation Elisa from Boehringer-Mannheim Belgium) was added to each well. After a further overnight incubation, T-cell proliferation was measured using a calorimetric immuno-assay for qualification of cell proliferation based on the incorporation of BrdU during DNA synthesis. Optical density (hereinafter referred as OD) was measured by a Behring EL311 plate reader at 450 nm (reference wavelength: 690 nm). Inhibition of proliferation by the pteridine derivative (drug) was counted while using the formula: […]

[3] = system: Highly purified T cells stimulated by anti-CD28 mAb; assay: CD28 assay: T-cell proliferation stimulated by anti-CD28 mAb + PMA (BrdU); type: cell-based, human; conditions: Homo sapiens; 50% reduction in T-cell proliferation
Experimental: as §2, §5, §6

Peripheral blood T cells = assay: In vivo leukocyte activation and immunosuppression whole blood assay (ConA stimulation, FACScan); design: species or system mice; conditions: 30 mg/kg per day i.p.; for TCR+, CD69+ peripheral blood T cells after ConA: 2 hours before ConA, baseline 0.5%; for TCR+, CD69+ peripheral blood T cells after ConA / TCR+, IL-2R+ peripheral blood T cells after ConA: untreated up to 3%; for ConA-stimulated CD71 up-regulation on T cells: baseline 4.8%, untreated 9.3% and 5.5% after 1 and 2 days; for CD134 expression on peripheral blood T cells after ConA: untreated up to 6.6% within 2 days, baseline […]
Experimental: Inbred mice (e.g. AKR strain), weighting from 20 to 30 g, were stimulated by intraperitoneal injection with mitogens specific for T cells (e.g. Concanavalin A, hereinafter referred as ConA, 500 μg per mouse), B cells or monocytes/macrophages (e.g. LPS 20 μg per mouse). […] Peripheral blood was collected 24, 36, 48, and respectively 72 hours after stimulation for immune fluorescence staining and FACScan analysis.
FACScan analysis proceeded as follows: heparinized whole blood (50 μl) was removed of red blood cells by incubation with a lysing buffer. The remaining leukocytes were double-stained with phycoerythrin-conjugated antibodies specific for T cells (e.g. T cell receptor TCR), B cells (e.g. CD45R/B220 (commercially available from Pharmingen) or monocytes/macrophages (e.g. F4/80) (commer-cially available from Serotec) in combination with FITC-conjugated antibodies against various cell surface markers such as CD69 (early activation molecule), CD25 (IL-2 receptor), CD71 (transferring receptor), B7-1/2 (ligand for the co-stimulatory molecule CD28) and CD11b (complement receptor 3). Cells were examined by flow cytometry using CellQuest software (commercially available from Decton Dickinson).

IC50 [1] [nM] | Compound | inhibition at 0.1 µM (IL-5) [%] | inhibition at 0.1 µM (IL-10) [%] | animals with metastases (inguinal and/or para-aortic lymph nodes) (B16BL/6 melanoma cells) [%] | IC50 [2] [nM] | IC50 [3] [nM] | TCR+, CD69+ peripheral blood T cells after ConA (Peripheral blood T cells) [%] | ConA-stimulated CD71 up-regulation on T cells (Peripheral blood T cells) | TCR+, IL-2R+ peripheral blood T cells after ConA (Peripheral blood T cells) [%] | CD134 expression on peripheral blood T cells after ConA (Peripheral blood T cells) [%]
 | COc1ccc(-c2cnc3nc(N)nc(N4CCOCC4)c3n2)cc1OC [2-amino-4-morpholino-6-(3,4-dimethoxyphenyl)pteridine] | 70 | 39 | 33 |  |  |  |  |  | 
900 | CCOc1nc(N)nc2ncc(-c3ccc(OC)c(OC)c3)nc12 [Example 30, 2-amino-6-(3,4-dimethoxyphenyl)-4-ethoxy-pteridine] |  |  |  | 700 | 700 | 1.6 | baseline levels | 1.5 | 3.5
400 | COc1ccc(-c2cnc3nc(N)nc(OC(C)C)c3n2)cc1OC [Example 45, 2-amino-6-(3,4-dimethoxyphenyl)-4-isopropoxypteridine] |  |  |  | 6700 | 1700 | 2.4 | baseline levels | 1.7 | 4.2
